Test results as given in patent US20030170239A1, “Immunotherapeutic method to prevent islet cell rejection” (priority 2000, published 2003).

Assays:
Lewis rats = experiment: Toxicity / body weight of recipients (Example 1); format: in vivo; conditions: when FK506 (0.3 mg/kg BW) was added, 12 days follow up
Experimental: (§1) In this study, recipients were administered the following immunosuppressive drugs: anti-CD40L mAb AH.F5 (Biogen, Inc., Cambridge, Mass., U.S.A.; 12 mg/kg BW, administered i.p. on day—1, 0, 1, 7, and then twice weekly); non-depleting anti-CD4 mAb RIB 5/2 (20 mg/kg BW, administered i.p. on day—1, 0, 1, 2, 3, 5, and then twice weekly); Ha4/8, a non-specific control to anti-CD40L (12 mg/kg BW, administered i.p. on day—1, 0, 1, 7, and then twice weekly); and FK-506 (Prograf, Fujisawa, Inc.; diluted to 1.25 mg/ml in sterile water, 0.3 mg/kg BW, administered i.m. daily from day—2, i.e., 2 days prior to transplant).
Control animals increased on average 15% in weight. All antibody treated animals (alone or in combination, but without FK506) increased weight parallel to untreated controls. […] This toxicity is significant, considering that the follow up was only 12 days and that the dose of FK506 (0.3 mg/kg BW) is equal or lower than in studies reporting no toxicity.

[1] = system: pig islet xenograft in Lewis rats; experiment: Immunohistochemical analysis of pig islet xenograft, non-diabetic recipients (Example 1); format: in vivo; design: key to Insulin staining of graft: 0 = absent; + = single cell only; ++ = cell groups; +++ = large cell groups; key to OX33 (B cells) leukocytic infiltration (IHC) / ED1 (CD68) leukocytic infiltration (IHC) / CD3 (Tcells) leukocytic infiltration (IHC) / CD8 leukocytic infiltration (IHC) / CD4 leukocytic infiltration (IHC): 0 = absent; + = single or few; ++ = moderate; +++ = plenty; conditions: non-diabetic Lewis rats, 2,000 IE pig islets, day +12 post transplant
Description: Pancreata were removed from donor outbred female pigs, >2 years old, by standard surgical technique. Following removal, pancreata were perfused with Liberase HI (Roche Diagnostics Corp., Indianapolis, Ind., U.S.A., Cat. No. 1666720) for intraductal distension. Islet cells were dissociated from the perfused pancreata by the automated method. Cleaved islets were separated from non-islet tissue by continuous OptiPrep gradients (Accurate Chemical and Scientific Corp., Westbury, N.Y., U.S.A., Cat. No. AN-1030061) on a COBE 2991 cell separator (Gambro BCT International, Lakewood, Colo., U.S.A.). The resulting free floating, purified islet cells were cultured in M199 medium supplemented with 20% donor pig serum for 48 hours at 37° C.
Transplantation was conducted by standard surgical technique. Briefly, the recipient animals, non-diabetic inbred male Lewis rats weighing 250-270 grams, were anesthetized with Telazol 0.20 mg/kg BW, administered i.m. In addition, the analgesic buprinorphine was administered s.c. to the recipient animals. Transplantation was conducted by making a left flank incision on the recipient, into which 2,000 donor islet equivalents (IE) were injected under the left kidney capsule via PE-50 tubing according to standard procedure.
as §1
Animals were sacrificed by intracardiac exsanguination after ether anesthesia on day +12 post transplant for histological analysis of the graft. Kidneys bearing xenografts were harvested, snap frozen in liquid nitrogen and stored at −70° C.
The following primary Abs were used for immunohistochemical analysis: W3/24 (anti-CD4; available from Pharmingen) W3/13 (anti-CD3; available from Pharmingen); OX-8 (anti-CD8; available from Pharmingen); NK1.2.3 (anti-NK cell; available from Pharmingen); OX-33 (anti-B cell; available from Serotec); ED1 (anti-CD68/macrophages; available from Serotec); and insulin from Dako. The immunohistochemical analysis was visualized by an avidin-biotin-peroxidase complex method and AEC as chromogen. In the case of a positive immunoreaction, a red-brown precipitate developed.

C=CC[C@@H]1/C=C(\C)C[C@H](C)C[C@H](OC)[C@H]2O[C@@](O)(C(=O)C(=O)N3CCCC[C@H]3C(=O)O[C@H](/C(C)=C/[C@@H]3CC[C@@H](O)[C@H](OC)C3)[C@H](C)[C@@H](O)CC1=O)[C@H](C)C[C@@H]2OC [FK, FK-506]
body weight lost (Lewis rats): around 5% | CD3 (Tcells) leukocytic infiltration (IHC) [1]: ++ | CD4 leukocytic infiltration (IHC) [1]: ++ | CD8 leukocytic infiltration (IHC) [1]: + | ED1 (CD68) leukocytic infiltration (IHC) [1]: + | Insulin staining of graft [1]: ++ | OX33 (B cells) leukocytic infiltration (IHC) [1]: +
